According to patent publication US20230132366A9, “METHODS FOR TREATING DYSREGULATED LIPID METABOLISM” (DENALI THERAPEUTICS INC., priority 2018, published 2023):

Test system: Trem2 KO BMDMs
Assay: In vitro lipid storage assay, Nile Red staining, BMDM treated with myelin
Type: cell-based, mouse
Procedure: Mouse femur and tibia bones were dissected and briefly sterilized with 70% ethanol. The bones were washed twice with HBSS, then cracked in 10 mL HBSS by mortar and pestle. The cell suspension was filtered through a 70 μm cell strainer, spun at 300×g for 5 min, and supernatant was discarded. The cell pellet was resuspended in ACK Lysing Buffer (Thermo Fisher A1049201) for 4 min at room temperature. 10 mL RPMI-1640 (Thermo Fisher)+10% Hyclone FBS (GE Healthcare)+ Penicillin-Streptomycin (Thermo Fisher) was added to stop ACK lysis, then spun 300×g 5 min, and supernatant was discarded. Cells were resuspended in RPMI culture media with 50 ng/mL murine M-CSF (Life Technologies, PMC2044), counted and diluted to 1×10^6 cells/mL, then plated on non-tissue culture treated petri dishes. Three days after seeding, fresh murine M-CSF (50 ng/mL) was added. Five days after seeding, cell culture media was aspirated and cells were washed once with PBS. Cells were resuspended in RPMI/FBS/Pen-Strep and harvested with a cell scraper. […]
For LC-MS, cells were extracted according to the protocol below. […] Lipid and filipin spots were analyzed using a spot-finding algorithm on the Harmony software supplied with the instrument. […] Cells were imaged at 63× resolution and Nile Red was quantified as total spot area (FIG. 5B) using a spot-finding algorithm on the Harmony software. […]

Compound	neutral lipid accumulation (Nile Red) (myelin debris 25 ug/mL 48 h, co-treatment 10 uM)	neutral lipid accumulation (Nile Red, total spot area) (myelin 25 ug/mL 24 h, then APOE3 10 ug/mL 24 h)
C=C(c1ccc(C(=O)O)cc1)c1cc2c(cc1C)C(C)(C)CCC2(C)C [bexarotene]	reduced	
APOE3: recombinant human APOE3 added into the culture media		improved
